Measured values taken from patent US8173593B2, “Methods and compositions for emergency contraception using endothelin receptor antagonists” (The Population Council, Inc., priority 2005, dated 2012).

Key:
[1] = test system: superovulated mice; assay: oocyte count after antagonist injection during superovulation; type: in vivo; details: for decrease in number of oocytes: time effect
Protocol: Pharmacological blockers of the endothelin receptor system were implemented to elucidate the role of ET-2 during superovulation. JKC301 (ETRA antagonist) and BQ788 (ETB antagonist) were injected 6 hours after hCG injection and an oocyte count was tabulated. […] BQ788 treatment was further investigated and found to have a time effect. BQ788 posted a 39%, 58%, and 66% decrease in number of oocytes at 4, 6 and 8 hours, respectively, after hCG injection.
(§1) BQ788 was further tested to examine the manner in which this ETB antagonist reduced the number of oocytes. Histological sections of ovaries collected at 18 hours after hCG injection in superovulated mice that received either vehicle or BQ788 through i/p at 8 hours after hCG, were examined and found to have striking differences in the number of corpus lutea (photo not shown).

[2] = test system: superovulated mice; assay: histological sections of ovaries collected 18 hours after hCG injection; type: in vivo
Protocol: as §1

[3] = test system: endothelin-2; assay: inhibition of endothelin-2 function

## CCCC[C@@H](NC(=O)[C@@H](Cc1cn(C(=O)OC)c2ccccc12)NC(=O)[C@H](CC(C)(C)C)NC(=O)N1[C@H](C)CCC[C@@H]1C)C(=O)O [BQ788, N-cis-2,6-dimethylpiperidinocarbonyl-L-gamma-methylleucyl-D-1-methoxycarbonyltryptophanyl-D-norleucine]
[1]; antagonist injected 6 hours after hCG injection, comparison of JKC301 and BQ788
  decrease in the number of oocytes: 65%
[1]; BQ788 given 4 hours after hCG injection
  decrease in number of oocytes: 39%
[1]; BQ788 given 6 hours after hCG injection
  decrease in number of oocytes: 58%
[1]; BQ788 given 8 hours after hCG injection
  decrease in number of oocytes: 66%
[2]; given at 8 hours, a stage very close to the ovulation
  inhibition of ovulation: inhibition of ovulation by blocking follicle rupture in the ovary
[2]; i/p at 8 hours after hCG, ovaries collected at 18 hours after hCG, versus vehicle
  number of corpus lutea and unruptured follicles in ovary sections: few corpus lutea and numerous unruptured follicles
[3]
  function of endothelin-2: inhibits function of endothelin-2
